Results reported in patent US10106552B2, “Compounds inhibiting eukaryotic elongation factor 2 kinase activity” (Longevica Pharmaceuticals, Inc., priority 2013, dated 2018).

Assays:
[1] = molecular target: recombinant eEF2K (Homo sapiens (Human), UniProt O00418); experiment: eEF2K Kinase-Glo luminescent kinase assay (ATP consumption, peptide substrate); assay type: biochemical; conditions: average of two to four separate experimental measurements, each the average of three replicates
Protocol: The following compounds were synthesized using the general methods described above. In the table below, IC50 values are in μM and are the average of two to four separate experimental measurements, each consisting in turn of the average of three replicates. IC50 values were calculated using the methods as described in Example 2. MW was determined by mass spectroscopy analysis, and is expressed as M+1.
To determine the IC50 of compounds of the invention, recombinant eEF2K was diluted in an assay buffer in the presence of calmodulin, a calcium-binding messenger protein expressed in eukaryotic cells, and incubated with peptide substrate Ac-RKKYKFNEDTERRRFL in the presence of Adenosine-5′-triphosphate (ATP) and the test compound. The peptide substrate is efficiently and specifically phosphorylated by eEF2K at a single substrate concentration of 100 μM. Using this peptide, eEF2K activity can be quantitatively determined using a Kinase-Glo® luminescent kinase assay kit (Promega) that measures ATP consumption by EF2K during phosphorylation of the substrate. ATP conversion was recorded using Perkin-Elmer Victor Luminometer. Data was plotted using GraphPad software and IC50 was calculated using 3-parameter sigmoidal curve fit.

[2] = test system: breast cancer cell line MDA-MB-231; experiment: Potentiation of doxorubicin effect, CellTiter-Glo cell viability; assay type: cell-based
Protocol: The potentiation of doxorubicin effect of eEF2K inhibition by Compound 35 in combination with doxorubicin was evaluated. The breast cancer cell line MDA-MB-231 (ATCC No. HTB-26) was incubated with 0.4 μM doxorubicin for 24 hours, with both a negative control (untreated) group and a group receiving only 10 μM Compound 35 but not doxorubicin.

[3] = test system: human bone osteosarcoma cancer cell line MG63; experiment: Cell viability under normal conditions and nutrient deprivation, CellTiter-Glo; assay type: cell-based
Protocol: The effect of eEF2K inhibition on the malignant human bone osteosarcoma cancer cell line MG63 (ATCC No. CRL-1427) was evaluated under both normal conditions and during nutrient deprivation. […] One group of cells were grown under normal conditions (advanced MEM/glutamine/10% FBS) and the other group of cells were switched to conditions of nutrient deprivation (HBSS/22 mM HEPES) twenty-four hours after plating. Each group was divided into three subsets: cells receiving no treatment; cells receiving vehicle (DMSO) and cells receiving 10 μM of Compound 35.

[4] = Pharmacokinetic study, intravenous administration; conditions: mouse, in vivo, male CD-1 mice, 1 mg/kg
[5] = test system: rat embryonic myocardium cell line H9C2; experiment: Doxorubicin-induced apoptosis, CellTiter-Glo cell viability; conditions: for recovery, percent of original density: H9C2, 0.4 μM doxorubicin 24 hours
Protocol: The cells were plated into 48-well plates at 0.2×10^5 cells per well and allowed to attach overnight. […] Cell viability was measured on days 1, 2, 3, and 6 using the Promega CellTiter-Glo® Luminescent Cell Viability Assay.

## CCC(C)c1c2c(nc3sc(C(N)=O)c(N)c13)C(C)(C)CC2 (stereo not drawn) [Compound 26, 3-Amino-4-sec-butyl-7,7-dimethyl-6,7-dihydro-5H-1-thia-8-aza-s-indacene-2-carboxylic acid amide]
[1]
  IC50: 1000 nM

## CC1(C)CCc2c1nc1sc(C(N)=O)c(N)c1c2-c1ccc(Br)s1 [Compound 27, 3-Amino-4-(5-bromo-thiophen-2-yl)-7,7-dimethyl-6,7-dihydro-5H-1-thia-8-aza-s-indacene-2-carboxylic acid amide]
[1]
  IC50: 1500 nM

## CC1(C)CCc2c1nc1sc(C(N)=O)c(N)c1c2-c1cncs1 [Compound 28, 3-Amino-7,7-dimethyl-4-thiazol-5-yl-6,7-dihydro-5H-1-thia-8-aza-s-indacene-2-carboxylic acid amide]
[1]
  IC50: 400 nM

## Cn1cc(-c2c3c(nc4sc(C(N)=O)c(N)c24)C(C)(C)CC3)cn1 [Compound 29, 3-Amino-7,7-dimethyl-4-(1-methyl-1H-pyrazol-4-yl)-6,7-dihydro-5H-1-thia-8-aza-s-indacene-2-carboxylic acid amide]
[1]
  IC50: 700 nM

## CC1(C)CCc2c1nc1sc(C(N)=O)c(N)c1c2-c1cscn1 [Compound 30, 3-Amino-7,7-dimethyl-4-thiazol-4-yl-6,7-dihydro-5H-1-thia-8-aza-s-indacene-2-carboxylic acid amide]
[1]
  IC50: 3400 nM

## CC1(C)CCc2c1nc1sc(C(N)=O)c(N)c1c2-c1cocn1 [Compound 31, 3-Amino-7,7-dimethyl-4-oxazol-4-yl-6,7-dihydro-5H-1-thia-8-aza-s-indacene-2-carboxylic acid amide]
[1]
  IC50: 3500 nM

## Cc1csc(-c2c3c(nc4sc(C(N)=O)c(N)c24)C(C)(C)CC3)n1 [Compound 32, 3-Amino-7,7-dimethyl-4-(4-methyl-thiazol-2-yl)-6,7-dihydro-5H-1-thia-8-aza-s-indacene-2-carboxylic acid amide]
[1]
  IC50: 3800 nM

## CC1(C)CCc2nc3sc(C(N)=O)c(N)c3c(-c3cncs3)c2C1 [Compound 33, 3-Amino-6,6-dimethyl-4-thiazol-5-yl-5,6,7,8-tetrahydro-thieno[2,3-b]quinoline-2-carboxylic acid amide]
[1]
  IC50: 1100 nM

## CC1(C)CCc2c1nc1sc(C(N)=O)c(N)c1c2-c1sccc1Br [Compound 34, 3-Amino-4-(3-bromo-thiophen-2-yl)-7,7-dimethyl-6,7-dihydro-5H-1-thia-8-aza-s-indacene-2-carboxylic acid amide]
[1]
  IC50: 800 nM

## CC1(C)CCc2c(nc3sc(C(N)=O)c(N)c3c2-c2cncs2)C1 [Compound 35, 3-Amino-7,7-dimethyl-4-thiazol-5-yl-5,6,7,8-tetrahydro-thieno[2,3-b]quinoline-2-carboxylic acid amide]
[1]
  IC50: 400 nM
[2]; MDA-MB-231, 0.4 μM doxorubicin 24 hours plus 10 μM Compound 35 twice daily for 72 hours, days 2, 4 and 6
  percent of viable cells: significant decrease
[2]; MDA-MB-231, 10 μM Compound 35 without doxorubicin, by day 6
  percent of viable cells: increased substantially
[3]; Homo sapiens, MG-63, 144 h, MG63, nutrient deprivation (HBSS/22 mM HEPES), by day 6, read-out: percent viable cells
  viability at 10 µM: < 10%
[3]; MG63, normal conditions (advanced MEM/glutamine/10% FBS), 10 μM
  cell growth: significant growth
[4]
  half-life: 34 min
[4]; at five minutes
  Cmax: 356 ng/mL
[5]; 0.4 μM doxorubicin 24 hours, 2 μM or 10 μM compound twice daily for 72 hours
  protection of H9C2 cells from doxorubicin-induced toxicity: robust, dose-dependent protection
[5]; 2 μM compound, by day 6
  recovery, percent of original density: 85%
[5]; 10 μM compound, by day 2
  recovery, percent of original density: 85%

## CC1CC(C)(C)Cc2nc3sc(C(N)=O)c(N)c3c(-c3cncs3)c21 (stereo not drawn) [Compound 36, 3-Amino-5,7,7-trimethyl-4-thiazol-5-yl-5,6,7,8-tetrahydro-thieno[2,3-b]quinoline-2-carboxylic acid amide]
[1]
  IC50: 400 nM

## CC1(C)CCCc2c1nc1sc(C(N)=O)c(N)c1c2-c1cc(Br)co1 [Compound 37, 3-Amino-4-(4-bromo-furan-2-yl)-8,8-dimethyl-5,6,7,8-tetrahydro-thieno[2,3-b]quinoline-2-carboxylic acid amide]
[1]
  IC50: 900 nM

## CC1(C)CCCc2c1nc1sc(C(N)=O)c(N)c1c2-c1cncs1 [Compound 38, 3-Amino-8,8-dimethyl-4-thiazol-5-yl-5,6,7,8-tetrahydro-thieno[2,3-b]quinoline-2-carboxylic acid amide]
[1]
  IC50: 300 nM

## Cn1cc(-c2c3c(nc4sc(C(N)=O)c(N)c24)C(C)(C)CCC3)cn1 [Compound 39, 3-Amino-8,8-dimethyl-4-(1-methyl-1H-pyrazol-4-yl)-5,6,7,8-tetrahydro-thieno[2,3-b]quinoline-2-carboxylic acid amide]
[1]
  IC50: 1400 nM

## Cc1ncsc1-c1c2c(nc3sc(C(N)=O)c(N)c13)C(C)(C)CC2 [Compound 40, 3-Amino-7,7-dimethyl-4-(4-methyl-thiazol-5-yl)-6,7-dihydro-5H-1-thia-8-aza-s-indacene-2-carboxylic acid amide]
[1]
  IC50: 400 nM

## Cc1nc(C)c(-c2c3c(nc4sc(C(N)=O)c(N)c24)C(C)(C)CC3)s1 [Compound 41, 3-Amino-4-(2,4-dimethyl-thiazol-5-yl)-7,7-dimethyl-6,7-dihydro-5H-1-thia-8-aza-s-indacene-2-carboxylic acid amide]
[1]
  IC50: 500 nM

## NC(=O)c1sc2nc3c(c(-c4cncs4)c2c1N)CCCC31CCCC1 [Compound 42]
[1]
  IC50: 3100 nM

## NC(=O)c1sc2nc3c(c(-c4cncs4)c2c1N)C1CCC3C1 (stereo not drawn) [Compound 43]
[1]
  IC50: 900 nM

## COc1cccc2c1C(=O)c1c(O)c3c(c(O)c1C2=O)C[C@@](O)(C(=O)CO)C[C@@H]3O[C@H]1C[C@H](N)[C@H](O)[C@H](C)O1 [doxorubicin, reference compound]
[2]; MDA-MB-231, 0.4 μM doxorubicin for 24 hours alone, by day 6
  percent of viable cells: increased slightly
[5]; H9C2, after doxorubicin was removed after 24 hours
  proliferation of remaining viable cells: failed to proliferate
[5]; H9C2, control arm, 0.4 μM doxorubicin for 24 hours
  cell death: 65%
